Like-named read-outs stand apart in the source and are kept apart here.
Assays:
[1] = Viability (MTS) of Hela cells; format: cell-based, human; settings: human, Hela cells; for viability at 72 h, 0.00137174 uM: MTS absorbance 490, Conc 0.00137174 uM; for viability at 72 h, 0.00411523 uM: MTS absorbance 490, Conc 0.00411523 uM; for viability at 72 h, 0.037037 uM: MTS absorbance 490, Conc 0.037037 uM; for viability at 72 h, 0.111111 uM: MTS absorbance 490, Conc 0.111111 uM; for viability at 72 h, 0.333333 uM: MTS absorbance 490, Conc 0.333333 uM; for viability at 72 h, 1 uM: MTS absorbance 490, Conc 1 uM; for viability at 72 h, 3 uM: MTS absorbance 490, Conc 3 uM
Summary of the method: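 Adherent cells treated after overnight attachment, nine concentrations in triplicate. After 72 h, MTS/PMS added and incubated 4 h at 37 °C before absorbance at 490 nm. Background-subtracted viability expressed as percent of untreated controls and fitted by non-linear regression.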

[2] = Viability (MTS) of 293T cells; format: cell-based, human; settings: human
Protocol: Suspension cells were treated 30 min after seeding, whereas adherent cells were allowed to adhere overnight and were then treated. Compound treatments were prepared in complete cell culture medium and 100 µl of 2× treatment-containing medium were added to each well. Complete cell culture medium without treatment was added in control wells, and wells containing medium without cells served as background. The outer wells of the 96-well plate were not used for treatment and were filled with 250 µl of PBS to reduce evaporation of medium from inner wells. Each compound and/or combination was tested at nine different concentrations with three replicates. The cell viability was measured after 72 h by tetrazolium-based MTS assay. MTS reagent (2 mg ml^–1 stock; cat. no. G1111, Promega) was freshly supplemented with phenazine methosulfate (PMS, 0.92 mg ml^–1 stock, cat. no. P9625, Sigma-Aldrich) in 20:1 ratio, and 20 µl of this mixture was added to each control and treatment well. The cells were incubated for 4 h at 37 °C and 5% CO2, and then the absorbance was recorded at 490 nm using Biotek’s Synergy Neo2 multimode plate reader (Biotek). The average absorbance value of background wells was subtracted from absorbance value of each control and treatment well, and percent cell viability ((At/A0) × 100)) was determined in each treatment well, where At is the absorbance value of the treatment well and A0 is the average absorbance value of control wells after background subtraction. The data were expressed as average percentage cell viability and fitted in non-linear regression curves using GraphPad Prism 7 (GraphPad Software, La Jolla, CA, USA).

[3] = read-out: cell viability normalised to control wells (mean of three replicates)
[4] = read-out: cell viability normalised to control wells (single replicate)
[5] = 293T cell viability, MTS absorbance 490 as percent of untreated control, mean of three wells, mean of 3 wells, normalised to own plate
[6] = 293T cell viability, MTS absorbance 490 as percent of untreated control, single replicate well, replicate well, normalised to own plate
[7] = 293T cell viability, MTS absorbance 490 as percent of untreated control, single replicate well, 3 uM, replicate well, normalised to own plate

SMILES	viability at 72 h, 0.00137174 uM [1, 3]	viability at 72 h, 0.00137174 uM [1, 4]	viability at 72 h, 0.00411523 uM [1, 3]	viability at 72 h, 0.00411523 uM [1, 4]	viability at 72 h, 0.037037 uM [1, 3]	viability at 72 h, 0.037037 uM [1, 4]	viability at 72 h, 0.111111 uM [1, 3]	viability at 72 h, 0.333333 uM [1, 3]	viability at 72 h, 0.333333 uM [1, 4]	viability at 72 h, 1 uM [1, 3]	viability at 72 h, 1 uM [1, 4]	viability at 72 h, 3 uM [1, 3]	viability at 72 h, 3 uM [1, 4]	viability at 72 h, 0.00137174 µM [2]	viability at 72 h, 0.00411523 µM [2]	viability at 72 h, 3 µM [2, 7]	also measured
CC1(C)CCC(c2ccc(Cl)cc2)=C(CN2CCN(c3ccc(C(=O)NS(=O)(=O)c4ccc(N[C@H](CCN5CCOCC5)CSc5ccccc5)c(S(=O)(=O)C(F)(F)F)c4)cc3)CC2)C1 [ABT263, navitoclax]	108%	115%	99.8%	106%	97%	103%	89.9%	80.4%	80.9%	81%	76.8%	80.1%	83.1%	96.2%	94.4%	60.7%	viability at 72 h, 0.037037 µM ([2]; 293T cell viability, MTS absorbance 490 as percent of untreated control, mean of three wells, 0.037037 uM, mean of 3 wells, normalised to own plate): 107%; viability at 72 h, 0.111111 µM ([2]; 293T cell viability, MTS absorbance 490 as percent of untreated control, mean of three wells, 0.111111 uM, mean of 3 wells, normalised to own plate): 113%; viability at 72 h, 0.333333 µM [2, 5]: 103%; viability at 72 h, 1 µM [2, 5]: 98.5%; viability at 72 h, 3 µM ([2]; 293T cell viability, MTS absorbance 490 as percent of untreated control, mean of three wells, 3 uM, mean of 3 wells, normalised to own plate): 61.1%; viability at 72 h, 0.333333 µM [2, 6]: 94.3%; viability at 72 h, 1 µM [2, 6]: 93.3%
Cc1ncsc1-c1ccc([C@H](C)NC(=O)[C@@H]2C[C@@H](O)CN2C(=O)[C@@H](NC(=O)CCCCCC(=O)N2CCN(CC[C@H](CSc3ccccc3)Nc3ccc(S(=O)(=O)NC(=O)c4ccc(N5CCN(CC6=C(c7ccc(Cl)cc7)CCC(C)(C)C6)CC5)cc4)cc3S(=O)(=O)C(F)(F)F)CC2)C(C)(C)C)cc1 [DT2216]	87.9%	92.3%	90.6%	96.4%	88.1%	89.4%	89.7%	96.4%	102%	82.9%	80.4%	82.1%	78.4%	106%	104%	89.4%	viability at 72 h, 0.111111 uM [1, 4]: 92.2%; viability at 72 h, 0.037037 µM [2]: 106%; viability at 72 h, 0.111111 µM [2]: 110%; viability at 72 h, 3 µM [2]: 90.6%; viability at 72 h, 0.037037 µM ([2]; 293T cell viability, MTS absorbance 490 as percent of untreated control, single replicate well, 0.037037 uM, replicate well, normalised to own plate): 105%; viability at 72 h, 0.111111 µM ([2]; 293T cell viability, MTS absorbance 490 as percent of untreated control, single replicate well, 0.111111 uM, replicate well, normalised to own plate): 109%
